Tests used:
[1] = molecular target: His-tagged human recombinant kinase full-length Akt2 (Homo sapiens (Human), UniProt P31751); test: Akt2 kinase assay (TR-FRET); assay type: biochemical; conditions: 10 μM ATP, read-out: Akt2, median IC50
Excerpt: Biological Assay 2.0: Akt2 Kinase Assay
Akt2 inhibitory activity of compounds of the present invention was quantified employing the Akt2 TR-FRET assay as described in the following paragraphs.
His-tagged human recombinant kinase full-length Akt2 expressed in insect cells and activated by PDK1 was purchased from Invitrogen (part number PV 3975). As substrate for the kinase reaction the biotinylated peptide biotin-Ahx-KKLNRTLSFAEPG (C-terminus in amide form) was used which can be purchased e.g. from the company Biosynthan GmbH (Berlin-Buch, Germany).
For the assay 50 nl of a 100 fold concentrated solution of the test compound in DMSO was pipetted into a black low volume 384 well microtiter plate (Greiner Bio-One, Frickenhausen, Germany), 2 μl of a solution of Akt2 in assay buffer [50 mM TRIS/HCl pH 7.5, 5 mM MgCl2, 1 mM dithiothreitol, 0.02% (v/v) Triton X-100 (Sigma)] were added and the mixture was incubated for 15 min at 22° C. to allow prebinding of the test compounds to the enzyme before the start of the kinase reaction. Then the kinase reaction was started by the addition of 3 μl of a solution of adenosine-tri-phosphate (ATP, 16.7 μM=>final conc. in the 5 μl assay volume is 10 μM) and substrate (1.67 μM=>final conc. in the 5 μl assay volume is 1 μM) in assay buffer and the resulting mixture was incubated for a reaction time of 60 min at 22° C. The concentration of Akt2 in the assay was adjusted depending of the activity of the enzyme lot and was chosen appropriate to have the assay in the linear range, typical enzyme concentrations were in the range of about 0.2 ng/μl (final conc. in the 5 μl assay volume).
The reaction was stopped by the addition of 5 μl of a solution of HTRF detection reagents (200 nM streptavidine-XL665 [Cisbio] and 1.5 nM anti-phosho-Serine antibody [Millipore, cat. #35-001] and 0.75 nM LANCE Eu-W 1024 labeled anti-mouse IgG antibody [Perkin Elmer]) in an aqueous EDTA-solution (100 mM EDTA, 0.1% (w/v) bovine serum albumin in 50 mM HEPES/NaOH pH 7.5).
The resulting mixture was incubated 1 h at 22° C. to allow the binding of the biotinylated phosphorylated peptide to the streptavidine-XL665 and the antibodies. Subsequently the amount of phosphorylated substrate was evaluated by measurement of the resonance energy transfer from the anti-mouse-IgG-Eu-Chelate to the streptavidine-XL665. Therefore, the fluorescence emissions at 620 nm and 665 nm after excitation at 350 nm was measured in a TR-FRET reader, e.g. a Rubystar (BMG Labtechnologies, Offenburg, Germany) or a Viewlux (Perkin-Elmer). The ratio of the emissions at 665 nm and at […] was taken as the measure for the amount of phosphorylated substrate. The data were normalised (enzyme reaction without inhibitor=0% inhibition, all other assay components but no enzyme=100% inhibition).

[2] = tested on: MCF-7 breast tumour cell line; test: Tumor cell proliferation assay (CellTiter-Glo, 72 h), MCF-7; assay type: cell-based; conditions: Homo sapiens, MCF7, 72 h drug exposure; for inhibition at 1.67 µM: read-out: MCF-7 median inhibition at 1.67 μM (%)
Experimental: Biological Assay 4.0: Tumor Cell Proliferation Assays
Compounds were tested in a cell-based assay that measures the capacity of the compounds to inhibit tumour cell proliferation following a 72 h drug exposure. Cell viability is determined using CellTiter-Glow® (CTG, Promega, cat# G7571/2/3). The CellTiter-Glo® Luminescent Cell Viability Assay is a homogeneous method to determine the number of viable cells in culture. Detection is based on using the luciferase reaction to measure the amount of ATP from viable cells. The amount of ATP in cells correlates with cell viability. Within minutes after a loss of membrane integrity, cells lose the ability to synthesize ATP, and endogenous ATPases destroy any remaining ATP; thus the levels of ATP fall precipitously.
Cells were plated at 3000-5000 cells/well (depending on the cell lines) in 90 μL growth medium on MTPs (Corning; #3603, black plate, clear flat bottom). For each cell line assayed, cells were plated onto a separate plate for determination of […] at t=0 hour and t=72 hour time points. Following overnight incubation at 37° C., chemiluminescence values for the t=0 samples were determined after adding 10 μl medium and 100 μl CTG solution according to manufacture protocol. Plates for the t=72 hour time points were treated with compounds diluted into growth medium at ten times final concentration added in 10 μL to the cell culture plate. Cells were then incubated for 72 hours at 37° C. Chemiluminescence values for the t=72 hour samples were determined. […] Experiments were controlled using a reference compound as standard.
Preferred compounds of the present invention show in this assay an inhibition of cell growth of cell lines such as the KPL-4 breast cancer cell line and the MCF-7 breast tumour cell line ([…], hormone dependent) with a median IC50 of <10 μM, more preferably, median IC50≦1 μM.

phospho-AKT at S473 = test: Cellular p-AKT1/2/3-S473 assay in KPL-4 cells; assay type: cell-based; conditions: Homo sapiens, KPL4; KPL-4 breast tumour cell line, 2 hours treatment; read-out: pAKT-S743 median IC50
Experimental: The phospho-substrates of PI3K-AKT-mTOR axis were used as the readouts to reflect pathway inhibition. Cells were seeded at 60-80% confluency per well in 96-well cell culture plates. After overnight incubation at 37° C. 5% CO2, cells were treated with compounds and vehicle at 37° C. for 2 hours. […] All measurements where at least done in duplicates and confirmed by independent repetition. Alternatively pAKT-S473 was measured using the “Akt Duplex” of the MULTI-SPOT® Assay System (Fa. Meso Scale Discovery, Cat# N41100B-1) following manufacturers instructions. Each assay used 20 μg of protein extract and measured total AKT and p-AKT content simultaneously in one well. All measurements where at least done in duplicates and confirmed by independent repetition. Values for P-AKT are expressed as percentage of P-AKT level compared to total-AKT content of the extracts.

His-tagged human recombinant kinase full-length Akt2, sequence (P31751 whole entry): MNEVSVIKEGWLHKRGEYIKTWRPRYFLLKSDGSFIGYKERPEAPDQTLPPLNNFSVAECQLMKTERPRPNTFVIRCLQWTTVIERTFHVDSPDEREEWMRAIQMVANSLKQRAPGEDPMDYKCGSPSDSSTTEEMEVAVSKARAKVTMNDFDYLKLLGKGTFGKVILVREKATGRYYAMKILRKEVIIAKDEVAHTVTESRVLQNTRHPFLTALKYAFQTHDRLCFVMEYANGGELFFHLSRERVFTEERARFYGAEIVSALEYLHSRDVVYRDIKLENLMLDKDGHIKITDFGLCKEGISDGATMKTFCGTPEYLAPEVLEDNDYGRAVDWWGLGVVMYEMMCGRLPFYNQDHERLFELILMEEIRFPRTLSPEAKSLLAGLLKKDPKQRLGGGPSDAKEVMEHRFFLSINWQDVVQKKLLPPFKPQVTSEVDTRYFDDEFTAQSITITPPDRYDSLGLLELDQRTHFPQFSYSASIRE

Row | Structure (SMILES) | IC50 [1] [nM] | IC50 [2] [nM] | IC50 (phospho-AKT at S473) [nM] | inhibition at 1.67 µM [2] [%]
1 | COC(=O)c1cn2c(-c3ccccc3)c(-c3ccc(C4(N)CCC4)cc3)nc2c(OC)n1 [Example 7, Methyl 2-[4-(1-aminocyclobutyl)phenyl]-8-methoxy-3-phenylimidazo[1,2-a]pyrazine-6-carboxylate] | 86 | 420 | 44 | 72.3
2 | Cc1cn2c(-c3ccccc3)c(-c3ccc(C4(N)CCC4)cc3)nc2c(C)n1 [Example 2, 1-[4-(6,8-Dimethyl-3-phenylimidazo[1,2-a]pyrazin-2-yl)phenyl]-cyclobutanamine] | 220 | 720 | 27 | 70.8
3 | CCc1cn2c(-c3ccccc3)c(-c3ccc(C4(N)CCC4)cc3)nc2c(OC)n1 [Example 4, 1-[4-(6-Ethyl-8-methoxy-3-phenylimidazo[1,2-a]pyrazin-2-yl)phenyl]cyclobutanamine] | 34 | 850 | 85 | 72.4

The remaining compounds from weak to strong by IC50 [1], led by results:

Row | IC50 [1] [nM] | IC50 [2] [nM] | IC50 (phospho-AKT at S473) [nM] | Structure (SMILES) | inhibition at 1.67 µM [2] [%]
4 | 97 | 1100 | 20 | NC(=O)c1cn2c(-c3ccccc3)c(-c3ccc(C4(N)CCC4)cc3)nc2cn1 [Example 6, 2-[4-(1-Aminocyclobutyl)phenyl]-3-phenylimidazo[1,2-a]pyrazine-6-carboxamide] | 57.3
5 | 33 | 1700 | 190 | COc1nc(Br)cn2c(-c3ccccc3)c(-c3ccc(C4(N)CCC4)cc3)nc12 [Example 3, 1-[4-(6-Bromo-8-methoxy-3-phenylimidazo[1,2-a]pyrazin-2-yl)phenyl]cyclobutanamine] | 46.2
6 | 14 | 270 | 7.5 | COc1nc(C(N)=O)cn2c(-c3ccccc3)c(-c3ccc(C4(N)CCC4)cc3)nc12 [Example 8, 2-[4-(1-Aminocyclobutyl)phenyl]-8-methoxy-3-phenylimidazo[1,2-a]pyrazine-6-carboxamide] | 73.1
